Results on four compounds are retold here after ChEMBL document CHEMBL1250481, “Isoxazole analogs of curcuminoids with highly potent multidrug-resistant antimycobacterial activity” (2010).

In brackets after ≈: the same amount, converted by molar mass.

Common to all, as to format: functional
Assay [1] concerns Mycobacterium tuberculosis. Nature of the assay: Antimycobacterial activity against isoniazid, rifampin, ethambutol and streptomycin-resistant Mycobacterium tuberculosis M4 after 24 hrs by microtiter alamar blue assay. As to conditions: M4, 24 h. In general terms: The colour change of resazurin is a common sign of viable cells or microbes.
The subject of assay [2] is Mycobacterium tuberculosis. The experiment in a line: Antimycobacterial activity against isoniazid, rifampin and streptomycin-resistant Mycobacterium tuberculosis M5 after 24 hrs by microtiter alamar blue assay. Particulars: M5, 24 h.
Assay [3] has as its system Mycobacterium tuberculosis. The experiment in a line: Antimycobacterial activity against isoniazid and rifampin-resistant Mycobacterium tuberculosis M6 after 24 hrs by microtiter alamar blue assay. As to conditions: M6, 24 h.
In assay [4] the test system is Mycobacterium tuberculosis. The experiment in a line: Antimycobacterial activity against isoniazid, rifampin, ethambutol, streptomycin, ofloxacin and ciprofloxacin-resistant Mycobacterium tuberculosis M48 after 24 hrs by microtiter alamar blue assay. As to conditions: M48, 24 h.
Assay [5] has as its system Mycobacterium tuberculosis. The experiment in a line: Antimycobacterial activity against isoniazid, rifampin and streptomycin-resistant Mycobacterium tuberculosis M3 after 24 hrs by microtiter alamar blue assay. Particulars: M3, 24 h.
Assay [6] deals with Mycobacterium tuberculosis. The experiment in a line: Antimycobacterial activity against isoniazid, rifampin, ethambutol, streptomycin, ofloxacin and ciprofloxacin-resistant Mycobacterium tuberculosis M53 after 24 hrs by microtiter alamar blue assay. Particulars: M53, 24 h.
In assay [7] the test system is Mycobacterium tuberculosis. The experiment in a line: Antimycobacterial activity against isoniazid, rifampin, ethambutol and streptomycin-resistant Mycobacterium tuberculosis M21 after 24 hrs by microtiter alamar blue assay. As to conditions: M21, 24 h.
Assay [8] has as its system Mycobacterium tuberculosis. Nature of the assay: Antimycobacterial activity against isoniazid, rifampin and ethambutol-resistant Mycobacterium tuberculosis M16 after 24 hrs by microtiter alamar blue assay. As to conditions: M16, 24 h.
Assay [9] deals with Mycobacterium tuberculosis. Nature of the assay: Antimycobacterial activity against isoniazid and rifampin-resistant Mycobacterium tuberculosis M11 after 24 hrs by microtiter alamar blue assay. As to conditions: M11, 24 h.
Assay [10] relates to Mycobacterium tuberculosis. The experiment in a line: Antimycobacterial activity against isoniazid, rifampin, ethambutol, streptomycin, ofloxacin and ciprofloxacin-resistant Mycobacterium tuberculosis M46 after 24 hrs by microtiter alamar blue assay. As to conditions: M46, 24 h.
Assay [11] concerns Mycobacterium tuberculosis. The experiment in a line: Antimycobacterial activity against isoniazid and rifampin -resistant Mycobacterium tuberculosis M27 after 24 hrs by microtiter alamar blue assay. Particulars: M27, 24 h.
Assay [12] has as its system Mycobacterium tuberculosis. The experiment in a line: Antimycobacterial activity against isoniazid, rifampin, ethambutol and streptomycin-resistant Mycobacterium tuberculosis M8 after 24 hrs by microtiter alamar blue assay. As to conditions: M8, 24 h.
Assay [13] relates to Mycobacterium tuberculosis. The experiment in a line: Antimycobacterial activity against isoniazid and rifampin -resistant Mycobacterium tuberculosis M22 after 24 hrs by microtiter alamar blue assay. As to conditions: M22, 24 h.

`CCCCCOc1ccc(/C=C/c2cc(/C=C/c3ccc(O)c(OC)c3)on2)cc1OC`: the MIC in assay [1] was found to be 1.56 µg/mL (≈ 3.58 µM); in assay [2], 1.56 µg/mL (≈ 3.58 µM); in [3], 0.78 µg/mL (≈ 1.79 µM); in assay [4], 3.12 µg/mL (≈ 7.18 µM); in [5], 0.39 µg/mL (≈ 0.895 µM); in assay [6] it was 3.12 µg/mL (≈ 7.18 µM). The MIC in [7] amounted to 3.12 µg/mL (≈ 7.18 µM); in assay [8], 1.25 µg/mL (≈ 2.87 µM); in [9], 3.12 µg/mL (≈ 7.18 µM); in assay [10] it was 1.56 µg/mL (≈ 3.58 µM); in assay [11] it was 0.39 µg/mL (≈ 0.895 µM); in assay [12], 3.12 µg/mL (≈ 7.18 µM). Besides, in assay [13], 0.78 µg/mL (≈ 1.79 µM) was the least that counted as inhibitory (MIC).
Take `COc1cc(/C=C/c2cc(/C=C/c3ccc(OC)c(OC)c3)no2)ccc1O`: the minimum inhibitory concentration (MIC) in [1] stood at 1.56 µg/mL (≈ 4.11 µM); in assay [2], 3.12 µg/mL (≈ 8.24 µM); in [3] it was 0.39 µg/mL (≈ 1.03 µM); in assay [4] it was 1.56 µg/mL (≈ 4.11 µM); in assay [5] it was 0.195 µg/mL (≈ 0.514 µM); in assay [6], 3.12 µg/mL (≈ 8.24 µM). The MIC in [7] came to 3.12 µg/mL (≈ 8.24 µM); in assay [8] it was 1.56 µg/mL (≈ 4.11 µM); in assay [9] it was 3.12 µg/mL (≈ 8.24 µM); in assay [10], 1.56 µg/mL (≈ 4.11 µM); in assay [11], 0.195 µg/mL (≈ 0.514 µM); in [12] it was 3.12 µg/mL (≈ 8.24 µM). The same compound showed an MIC in assay [13] of 0.39 µg/mL (≈ 1.03 µM).
With `CCCCCOc1ccc(/C=C/c2cc(/C=C/c3ccc(O)c(OC)c3)no2)cc1OC`, the MIC in assay [1] is 1.56 µg/mL (≈ 3.58 µM); in [2], 1.56 µg/mL (≈ 3.58 µM); in [3] it was 3.12 µg/mL (≈ 7.18 µM); in [4] it was 3.12 µg/mL (≈ 7.18 µM); in assay [5] it was 1.56 µg/mL (≈ 3.58 µM); in assay [6], 3.12 µg/mL (≈ 7.18 µM). Further, the MIC in [7] is 6.25 µg/mL (≈ 14.4 µM); in assay [8] it was 1.56 µg/mL (≈ 3.58 µM); in [9] it was 6.25 µg/mL (≈ 14.4 µM); in assay [10], 1.56 µg/mL (≈ 3.58 µM); in [11], 1.56 µg/mL (≈ 3.58 µM); in assay [12], 6.25 µg/mL (≈ 14.4 µM). In assay [13], this compound returned an MIC of 6.25 µg/mL (≈ 14.4 µM).
In the case of `COc1cc(/C=C/c2cc(/C=C/c3ccc(OC)c(OC)c3)on2)ccc1O`, the MIC came to 6.25 µg/mL (≈ 16.5 µM) in assay [1]; 12.5 µg/mL (≈ 32.9 µM) in [2]; 1.56 µg/mL (≈ 4.11 µM) in assay [3]; 12.5 µg/mL (≈ 32.9 µM) in assay [4]; 0.78 µg/mL (≈ 2.06 µM) in assay [5]; 12.5 µg/mL (≈ 32.9 µM) in [6]. In addition, the MIC came out at 12.5 µg/mL (≈ 32.9 µM) in [7]; 12.5 µg/mL (≈ 32.9 µM) in assay [8]; 12.5 µg/mL (≈ 32.9 µM) in [9]; 6.25 µg/mL (≈ 16.5 µM) in assay [10]; 0.78 µg/mL (≈ 2.06 µM) in [11]; 12.5 µg/mL (≈ 32.9 µM) in assay [12]. The same compound returned an MIC in assay [13] of 1.56 µg/mL (≈ 4.11 µM).

For orientation: MIC means the lowest concentration that inhibits growth of the organism. Higher therefore signals weaker potency.
